In brackets after ≈: the same amount, converted by molar mass. Blank lines part the entries; values can stand above or below the compound they belong to.
Tests used:
[1] = target: T1, hMDMX (GST-tagged, a.a. 1–185) (Homo sapiens, UniProt O15151); test: fluorescence polarization competition assay, MDMX-p53 peptide binding; details: for IC50: Figure 3, read-out: IC50, inhibition of MDMX-p53 peptide binding
T1 construct: hMDMX (GST-tagged, a.a. 1–185); made in house; host or cells: E. coli BL21(DE3)
T1 sequence (O15151 1-185): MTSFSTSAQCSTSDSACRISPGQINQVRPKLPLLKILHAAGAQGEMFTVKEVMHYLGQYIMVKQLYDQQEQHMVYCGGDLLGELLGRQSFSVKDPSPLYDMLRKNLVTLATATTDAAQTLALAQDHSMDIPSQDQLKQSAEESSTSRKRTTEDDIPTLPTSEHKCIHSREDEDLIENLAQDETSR
Procedure: All fluorescence polarization assays were performed in binding buffer (10 mM Tris, pH 8.0, 170 mM NaCl, 0.05% Tween-20) unless otherwise noted. For competition assays a master mix of 15 nM Texas red-labeled (N-terminal label) P53 Peptide (sequence: […]) with 1 µM hMDMX (GST-tagged, a.a. 1–185) was prepared and 20 µl was added to black polystyrene 384 well plates (Corning #3573). DMSO stock solutions of test compounds were then added by pin transfer (V&P scientific) in nano-liter volumes (maximum final DMSO percentage = 1%). The assay mixture was incubated at room temperature for one hour and read on an EnVision multi-label plate reader using a 555 nm excitation filter, a 632 nm emission filter, and a Texas Red FP dichroic mirror. Binding inhibition curves and IC50 values were determined by fitting observed mP values to a 4-parameter sigmoidal binding curve using PRISM 5.0 (GraphPad Software, Inc.).

MDMX (23–111) = target: T2, MDMX (23–111) (Homo sapiens, UniProt O15151); test: thermal stability of MDMX by hydrophobic dye binding (thermal shift); details: for effect of reducing agent used alone on thermal stability of MDMX: without compound 1
T2 construct: Thermal shift data for MDMX (23–111) showing a 7 degree stabilization; made in house; host or cells: E. coli BL21(DE3)
T2 sequence (O15151 23-111): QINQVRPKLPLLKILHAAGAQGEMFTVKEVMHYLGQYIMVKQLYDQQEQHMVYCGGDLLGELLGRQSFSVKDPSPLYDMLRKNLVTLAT
Procedure: The ITD measurements were performed with a RT-PCR instrument (Applied Biosystems 7900HT) equipped with a 384-well probe using SYBR detection (excitation 495/emission 537). The program used started at 45°C and the temperature increased at a rate of 1 degree per minute. […] The final volume was 20 µl for each well using 384 ABI PRISM™ plates (Applied Biosystems). The data was exported and evaluated using a custom data processing algorithm coded in Pipeline Pilot (Scitegic). Apparent melting temperatures were calculated by measuring the temperature at which the observed fluorescence signal was halfway between the baseline and the maximum. Binding curves were determined by graphing observed apparent melting temperature as a function of test compound concentrations. These curves were then fit to a four parameter sigmoidal dose response model using PRISM 5.0 (GraphPad Software, Inc.).

hMDMX (aa 23–111) = target: T3, hMDMX (aa 23–111) (Homo sapiens, UniProt O15151); test: SPR binding of compound 1 to immobilized hMDMX; details: 100 µM
T3 construct: hMDMX (23–111) was immobilized to the SPR chips using a biotin tag; made in house
T3 sequence (O15151 23-111): T2 sequence (O15151 23-111)
Procedure: Binding studies were performed at 25°C using a Biacore T100 (GE Healthcare) surface plasmon resonance (SPR) instrument. Either streptavidin or NeutrAvidin (Thermo Scientific) was immobilized on a carboxymethyldextran-coated gold surface (CM5 chip; GE Healthcare) by standard amine coupling methods. The carboxymethyl groups of dextran were activated with N-ethyl-N ´-(3-dimethylaminopropyl) carbodiimide (EDC) and N-hydroxysuccinimide (NHS). For peptide experiments, streptavidin was attached at pH 4.5 in 10 mM sodium acetate to levels of ∼3000 RU per flow cell. For small molecule experiments, NeutrAvidin was attached at pH 5.0 in 10 mM sodium acetate to levels of ∼11000–12000 RU per flow cell. Any remaining reactive sites were blocked by reaction with ethanolamine. Biotin-MDM4 was captured on the chip by injection over the streptavidin or NeutrAvidin surface.
For peptide binding experiments, p53wt peptide was prepared as a 3-fold serial dilution in peptide binding buffer (20 mM Bis-Tris pH 6.5, 200 mM NaCl, 0.1 mg/mL bovine serum albumin, 0.005% Tween20, +/−1 mM TCEP). The peptide was injected in triplicate at each concentration at a flow rate of 75 µL/min. […] Equilibrium dissociation constants (K d) for peptide binding were determined by equilibrium affinity analysis with a 1∶1 binding model using Scrubber2.

GST-hMDMX = target: T4, GST-hMDMX (Homo sapiens, UniProt O15151); test: mass spectrometry of covalent adducts, GST-tagged hMDMX
T4 construct: made in house; host or cells: E. coli BL21(DE3)
T4 sequence (O15151 1-185): T1 sequence (O15151 1-185)
Procedure: (§1) Samples were prepared in binding buffer (10 mM Tris, pH 8.0, 170 mM NaCl) with a 50 µl final volume. Samples were incubated at room temperature for 1.5 hours after which they were stored overnight at 4°C before analysis by mass spectrometry. Samples containing 1 µM hMDMX constructs were concentrated to 20 µM using 3000 MWCO centrifugal protein concentrators (Vivascience, Inc.) immediately prior to analysis. Prior to injection all samples were desalted using a reverse phase C8 Zip Tip (Millipore) and eluted in 50% acetonitrile, 2% formic acid. The samples were ionized by static nanospray using EconoTips (New Objective) on a Waters LCT Premier XE mass spectrometer using positive mode. The resultant charge envelope was deconvoluted using MaxEnt 1 algorithm of MassLynx V 4.0 sp 4 software. A mass error of 1Da for every 10,000 Da is permissible using this mass spectrometer.

[2] = solubility assay (µSOL Evolution, pION); format: physicochemical; details: system solution buffer (SSB, pION), pH 7.4, aqueous buffer, kinetic from dmso stock
Procedure: Solubility assay was carried out on Biomek FX lab automation workstation (Beckman Coulter, Inc., Fullerton, CA) using µSOL Evolution software (pION Inc., Woburn, MA). The detailed method is described as following. 10 µL of 10 mM compound stock (in DMSO) was added to 190 µL 1-propanol to make a reference stock plate. 5 µL from this reference stock plate was mixed with 70 µL 1-propanol and 75 µL SSB (system solution buffer, pH adjusted to 7.4, pION Inc., Woburn, MA) to make the reference plate, and the UV spectrum (250 nm –500 nm) of the reference plate was read. 6 µL of 10 mM test compound stock was added to 594 µL SSB in a 96-well storage plate and mixed. The storage plate was sealed and incubated at room temperature for 18 hours. The suspension was then filtered through a 96-well filter plate (pION Inc., Woburn, MA). 75 µL filtrate was mixed with 75 µL 1-propanol to make the sample plate, and the UV spectrum of the sample plate was read. Calculation was carried out by µSOL Evolution software based on the AUC (area under curve) of UV spectrum of the sample plate and the reference plate. All compounds were tested in triplicates.

retinoblastoma cells = tested on: retinoblastoma cells; design: method as in PMID 20080970; details: cited from earlier work
hMDM2(18–125)C77V = target: T5, hMDM2(18–125)C77V (Homo sapiens, UniProt Q00987, C77V); test: inhibition of p53 peptide binding to MDM2 cysteine mutant; details: hMDM2(18–125)C77V relative to MDM2; Figure S6
T5 construct: a mutant of MDM2 protein (hMDM2(18–125)C77V) lacking the cysteine

MDMX [3] = target: T6, MDMX (Homo sapiens, UniProt O15151); test: fluorescence polarization p53 peptide exclusion assay, Mdmx; format: binding; details: ND = compound does not noticeably block interaction with p53 peptide
T6 sequence (O15151 1-490): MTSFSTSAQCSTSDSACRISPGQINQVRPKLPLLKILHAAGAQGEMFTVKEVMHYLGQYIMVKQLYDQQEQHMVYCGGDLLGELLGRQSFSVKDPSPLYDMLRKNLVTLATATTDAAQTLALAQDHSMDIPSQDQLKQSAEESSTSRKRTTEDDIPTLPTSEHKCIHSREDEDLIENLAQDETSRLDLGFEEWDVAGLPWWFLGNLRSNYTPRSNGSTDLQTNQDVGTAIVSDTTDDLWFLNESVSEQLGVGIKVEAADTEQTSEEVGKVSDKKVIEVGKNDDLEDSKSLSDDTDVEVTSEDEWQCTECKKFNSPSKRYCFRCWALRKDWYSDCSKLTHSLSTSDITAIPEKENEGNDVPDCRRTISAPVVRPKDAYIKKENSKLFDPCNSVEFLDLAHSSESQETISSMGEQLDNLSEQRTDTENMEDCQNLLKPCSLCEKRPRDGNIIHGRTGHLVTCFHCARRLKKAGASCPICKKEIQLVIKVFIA
From the text: (§2) the α,β-unsaturated amide towards Mdm2 and Mdmx as determined using fluorescence
(§3) polarization p53 peptide exclusion assay. Compound core according to J. Biol. Chem. 2010;
(§4) 285: 10786 is marked in blue.
(§5) Compound Chemical formula Compound code Mdm2 MdmX […]

C77A mutant of MDM2 = C77A mutant of MDM2 (Homo sapiens, UniProt Q00987, C77A); test: covalent labelling of MDM2 C77A mutant; details: C77A mutation; Figure S6
Mdm2 = Mdm2 (Homo sapiens, UniProt Q00987); test: fluorescence polarization p53 peptide exclusion assay, Mdm2; format: binding; details: ND = compound does not noticeably block interaction with p53 peptide
From the text: as §2, §3, §4, §5

MDMX [4] = target: T6, MDMX; design: method as in PMID 20080970; details: inhibition of the MDMX-p53 interaction; read-out: EC50, competition for wild type p53 peptide binding to MDMX; cited from earlier work
[5] = target: T7, hMDMX (untagged aa 23 to 111 construct) (Homo sapiens, UniProt O15151); test: mass spectrometry of covalent adducts, untagged hMDMX
T7 construct: hMDMX (untagged aa 23 to 111 construct); His-tag (cleaved yes); made in house; host or cells: E. coli BL21(DE3)
T7 sequence (O15151 23-111): T2 sequence (O15151 23-111)
Procedure: as §1

Sequence of C77A mutant of MDM2 (Q00987 whole entry C77A): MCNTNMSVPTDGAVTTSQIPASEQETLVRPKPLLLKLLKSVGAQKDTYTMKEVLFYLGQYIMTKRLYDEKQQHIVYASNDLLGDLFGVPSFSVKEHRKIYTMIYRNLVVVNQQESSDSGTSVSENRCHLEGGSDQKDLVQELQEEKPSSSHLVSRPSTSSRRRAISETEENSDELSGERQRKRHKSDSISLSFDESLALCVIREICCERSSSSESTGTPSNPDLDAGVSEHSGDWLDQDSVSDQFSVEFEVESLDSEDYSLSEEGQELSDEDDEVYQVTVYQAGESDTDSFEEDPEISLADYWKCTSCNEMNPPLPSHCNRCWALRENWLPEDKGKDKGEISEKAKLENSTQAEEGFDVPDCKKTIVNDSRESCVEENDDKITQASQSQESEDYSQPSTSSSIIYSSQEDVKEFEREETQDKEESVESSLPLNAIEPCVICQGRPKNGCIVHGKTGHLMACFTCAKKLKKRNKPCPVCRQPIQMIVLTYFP
T5 sequence (Q00987 18-125 C77V): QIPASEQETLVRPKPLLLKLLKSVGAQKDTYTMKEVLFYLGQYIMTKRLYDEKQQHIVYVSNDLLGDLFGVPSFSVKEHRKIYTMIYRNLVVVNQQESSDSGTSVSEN
Sequence of Mdm2 (Q00987 whole entry): as the sequence (Q00987 whole entry C77A) above, with A77C counted along it

SMILES: O[C@@H](CS)[C@@H](O)CS [DTT]
effect of reducing agent used alone on thermal stability of MDMX (MDMX (23–111)): no apparent effect

SMILES: O=C(O)CCP(CCC(=O)O)CCC(=O)O [TCEP]
effect of reducing agent used alone on thermal stability of MDMX (MDMX (23–111)): destabilized the protein at high concentrations

More lines, main results first:

ability of treated MDMX to bind p53 peptide ([1]; MDMX treated with Ellman's reagent, Figure S3): unable to bind p53 peptide
effect on melting point of MDMX (MDMX (23–111); MDMX treated with Ellman's reagent, Figure S4): partially stabilized
SMILES: O=C(O)c1cc(SSc2ccc([N+](=O)[O-])c(C(=O)O)c2)ccc1[N+](=O)[O-] [DTNB, reference compound]

time to return to baseline after the pulse (off rate) (hMDMX (aa 23–111); non-reducing conditions): ~5 min
SPR binding (hMDMX (aa 23–111); reducing conditions (TCEP)): no binding was observed
covalent adduct formation (mass spectrum) (GST-hMDMX; 1 µM GST-hMDMX, 5 µM compound): no alkylation events
covalent adduct formation (mass spectrum) (GST-hMDMX; 20 µM GST-hMDMX, 100 µM compound): multiple alkylation events
solubility at 18 h [2]: 12 µM (≈ 5.15 µg/mL)
weaker potency on cysteine-lacking mutant than on MDM2 (hMDM2(18–125)C77V): 10 fold
Ki (MDMX [3]): 8.07 µM
ability to covalently label MDM2 (C77A mutant of MDM2): abolishes
Ki (Mdm2): 5.21 µM
IC50 [1]: 3 µM
reduction of potency after reaction with glutathione in situ ([1]; Figure S5, efficacy not completely removed): 10 fold
stabilization of the protein's melting point (MDMX (23–111); addition of compound 1): 7 degree
EC50 (MDMX (23–111); minimal time dependency (5 min vs 1 h), read-out: apparent EC50 of melting point stabilization): ~1 µM
covalent adduct formation (mass spectrum) ([5]; 1 µM hMDMX, 5 µM compound): no alkylation
covalent adduct formation (mass spectrum) ([5]; 20 µM hMDMX, 100 µM compound): partial alkylation
SMILES: CCOc1cc(/C=C2\C(=O)N(c3ccccc3)N=C2C)cc(Cl)c1OCC(=O)OC [compound 1]
p53 dependent cell death of retinoblastoma cells (retinoblastoma cells): caused p53 dependent cell death of retinoblastoma cells
EC50 (MDMX [4]): ~5 µM

IC50 [1]: > 100 µM
reduction of inhibitory potency by saturation of the ene-amide group ([1]; compound 2 relative to compound 1): roughly 30 fold
SMILES: CCOc1cc(CC2C(=O)N(c3ccccc3)N=C2C)cc(Cl)c1OCC(=O)OC (centres unmarked) [compound 2]
